Source: EP4682156A1, “LINKER AND DRUG CONJUGATE USING SAME, AND ANTIBODY-DRUG CONJUGATE AND USE THEREOF” (Shanghai Affinity Biopharmaceutical Co., Ltd., priority 2023, dated 2024)
*1 amine or outer side, *2 acyl side, *3 side chain or, on linkers, in order; H or OH if unused. Where a SMILES comes first, the peptide text is derived from it. [ ]: non-standard residue; d: D form. The star is where a group is joined. Exatecan = CC[C@@]1(O)C(=O)OCc2c1cc1n(c2=O)Cc2c-1nc1cc(F)c(C)c3c1c2[C@@H](N*)CC3; Hexanoyl(6-maleimido) = O=C1C=CC(=O)N1CCCCCC(=O)*; Propanoyl(3-maleimido) = O=C1C=CC(=O)N1CCC(=O)*; PEG6 = NCCOCCOCCOCCOCCOCCOCCC(=O)O; NHCH2OCH2CO = O=C(COCN[*:1])[*:2]

What was measured:
cathepsin L [1] = target: T1, cathepsin L (Homo sapiens, UniProt P07711); test: Enzymatic cleavage by cathepsin L, released DXD quantified by HPLC; format: biochemical; details: pH 6
T1 sequence (P07711 114-333): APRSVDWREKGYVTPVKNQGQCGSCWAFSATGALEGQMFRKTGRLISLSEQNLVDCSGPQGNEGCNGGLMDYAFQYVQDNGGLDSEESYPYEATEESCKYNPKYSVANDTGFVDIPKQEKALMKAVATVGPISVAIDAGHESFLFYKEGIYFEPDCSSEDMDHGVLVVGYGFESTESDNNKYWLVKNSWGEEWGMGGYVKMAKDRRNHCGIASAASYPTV

[2] = Stability in monkey heart homogenate; format: in vitro ADME; details: 20 hours, 37°C, pH 5.0
Method: (§1) • Assay buffer: 25 mM MES, pH 5.0. • Protein precipitation agent: DMSO/MEOH = 1:1
(§2) Preparation of sample solution: An appropriate amount of MI-PEG6-GGFL-AM-DXD and EMC-GGFG-AM-DXD were weighed and added with a certain amount of DMSO solution to make the concentration of the stock solution thereof being 10 umol/mL. Then 10uL of the stock solution were taken and added with 80uL of DMSO to dilute to 1 umol/mL. Then pure water was added in a ratio of 1:4 to dilute the sample solution to a concentration of 0.2 umol/mL.
(§3) An appropriate amount of fast frozen heart by liquid nitrogen was placed in a 4 mL EP tube and weighed. Assay buffer with pH 5.0 was added at a mass-to-volume ratio of 1:5. The tissue was homogenized using a tissue grinder for 3 min. The heart homogenate was then centrifuged at 12,000 rpm for 5 min. The supernatant was collected and stored in a -40°C refrigerator for later use.
(§4) The sample solution and the heart homogenate were respectively taken at a volume ratio of 1:9 and shaken thoroughly. Another sample solution and buffer solution (pH 5.0) were also shaken thoroughly at a volume ratio of 1:9 as a blank control solution. The solution was placed in a 37°C constant temperature water bath. 30uL was taken at 0h, 2h, 4h, and 20h, and added with 90uL of protein precipitation agent and shaken thoroughly. […]

[3] = Stability in human plasma; details: 20 hours, 37°C
cathepsin B = cathepsin B (Homo sapiens, UniProt P07858); test: Enzymatic cleavage by cathepsin B, released DXD quantified by HPLC; format: biochemical; details: 20 hours of action of cathepsin B, 37°C, pH 5.0
Method: (§5) About 25 mg of DXD reference substance was accurately weighed and placed in a 5 mL volumetric flask. DMSO was added to the scale mark and the mixture was mixed to prepare a 10 mM solution which was marked as the standard stock solution. The standard stock solution was taken and prepared into standard solutions with concentrations of 20nmol/mL, 10nmol/mL, 5nmol/mL, 2nmol/mL, 1nmol/mL, and 0.2nmol/mL. 10uL was taken and injected into HPLC, the peak area was recorded. The linear equation was calculated by using the peak area as the ordinate and the concentration as the abscissa.
(§6) • chromatographic column: Agilent Eclipse Plus C18 5um, 4.6*250mm • Fluorescence detector: […] • Mobile phase A: 0.1%TFA/H2O B: ACN • Flow rate: 1ml/min • Injection volume: 10uL
• Activation buffer: 25mM MES, 5mM DTT, pH 5.0 • Assay buffer: 25 mM MES, pH 5.0. • Cathepsin B: 100 µg/mL in activation buffer, incubated at room temperature for 15 minutes
Preparation of sample solution: An appropriate amount of MI-PEG6-GGFL-AM-DXD and EMC-GGFG-AM-DXD were respectively weighed and added with a certain amount of DMSO solution to make the concentration of the stock solution thereof being 10 umol/mL. Then 10uL of the stock solution was respectively taken and added with 80uL of DMSO to dilute to 1 umol/mL. […]

[4] = Stability in monkey liver homogenate; format: in vitro ADME; details: 20 hours, 37°C, pH 5.0
Method: as §1, §2
as §3, with “liver” for “heart”
as §4, with “liver” for “heart”

[5] = Activation in CT26 tumor homogenate (tumor homogenate 2); details: tumor homogenate 2 (CT26), 20 hours, 37°C, pH 5.0
[6] = Activation in human gastric cancer tumor homogenate (tumor homogenate 1); details: tumor homogenate 1, after 20 hours, 37°C, pH 5.0
cathepsin L [7] = target: T1, cathepsin L; test: Enzymatic cleavage by cathepsin L, released DXD quantified by HPLC; format: biochemical; details: within 20 h
Method: as §5, §6
• Assay Buffer: 50mM MES, 5mM DTT, 1mM EDTA, 0.005% (w/v) Brij-35, pH6.0. • Cathepsin L: 100 µg/mL in assay buffer, incubated on ice for 15 min.
Preparation of sample solution: An appropriate amount of L-AM-DXD was weighed and added with a certain amount of DMSO solution to make the concentration of the stock solution being 10 umol/mL. Then 10uL of the stock solution was taken and added with 80uL of DMSO to dilute to 1 umol/mL. Then pure water was added in a ratio of 1:4 to dilute the sample solution to a concentration of 0.2 umol/mL. […]

Human Fibrosarcoma = test: Drug efficacy study of drug conjugates on human fibrosarcoma tumor model; format: in vivo, Nude mice
[8] = Stability in human plasma; format: in vitro ADME; details: within 20 hours
Method: • PBS buffer: pH = 7.2 • Protein precipitation agent: DMSO/MEOH = 1:1
as §2, with “and GGFG-AM-DXD” for “and EMC-GGFG-AM-DXD”, “solution was” for “solution were”
An appropriate amount of sample was weighed and prepared into a 1 mM solution with DMSO. Human plasma was added at a volume ratio of 1:9 and the solution was incubated in a 37°C incubator. Samples were taken after 0, 2, 4, 6, and 20 h. DMSO/MEOH (1:1) was added at a volume ratio of 1:3 to remove protein. The solution was centrifuged at 12,000 rpm for 5 min and the supernatant was collected. The HPLC method was as described in 1.2 of Example 4.

[9] = 5 µmol/kg (1/10 MTD) once a week for 3 weeks, Day 20

SMILES: CC[C@@]1(O)C(=O)OCc2c1cc1n(c2=O)Cc2c-1nc1cc(F)c(C)c3c1c2[C@@H](NC(=O)COCNC(=O)CNC(=O)[C@H](Cc1ccccc1)NC(=O)CNC(=O)CNC(=O)CCCCCN1C(=O)C=CC1=O)CC3 [EMC-GGFG-AM-DXD, reference compound] ({Hexanoyl(6-maleimido)}-GGFG[NHCH2OCH2CO]-Exatecan)
- DXD produced, share of the reaction substrate (enzymatic cleavage activation efficiency) (cathepsin L [1]): 27.8%
- DXD produced, share of the substrate [2]: 7.41%
- DXD produced, share of the substrate [3]: 2.88%
- substrate contents [3]: 97.1%
- DXD produced by enzymatic cleavage, share of the reaction substrate (cathepsin B): 45.2%
- DXD produced, share of the substrate [4]: 27.6%

SMILES: CC[C@@]1(O)C(=O)OCc2c1cc1n(c2=O)Cc2c-1nc1cc(F)c(C)c3c1c2[C@@H](NC(=O)COCNC(=O)[C@H](CC(C)C)NC(=O)[C@H](Cc1ccccc1)NC(=O)CNC(=O)CNC(=O)CCOCCOCCOCCOCCOCCOCCNC(=O)CCN1C(=O)C=CC1=O)CC3 [GGFL-AM-DXD] ({Propanoyl(3-maleimido)-PEG6}-GGFL[NHCH2OCH2CO]-Exatecan)
- DXD produced, share of the substrate [5]: 98.7%
- DXD produced, share of the substrate [6]: 94.2%

SMILES: CC[C@@]1(O)C(=O)OCc2c1cc1n(c2=O)Cc2c-1nc1cc(F)c(C)c3c1c2[C@@H](NC(=O)COCNC(=O)[C@H](CC(C)C)NC(=O)[C@H](Cc1ccccc1)NC(=O)CNC(=O)CNC(=O)CCOCCOCCOCCOCCOCCOCCNC(=O)CCN1C(=O)C=CC1=O)CC3 [S7, MI-PEG6-GGFL-AM-DXd] ({Propanoyl(3-maleimido)-PEG6}-GGFL[NHCH2OCH2CO]-Exatecan)
- Enzymatic cleavage efficiency % (cathepsin L [7]): 98.3%
- Anti-tumor rate% Day 20 (Human Fibrosarcoma; [9]): 98%
- Tumor volume(mm^3) Day 20 (Human Fibrosarcoma; [9]): 20 mm^3
- treatment efficacy compared with DXd (Human Fibrosarcoma; same dose 5 µmol/kg once a week for 3 weeks): significantly improved treatment efficacy
- Generated load % [8]: 1.7%
- Substrate content % [8]: 98.3%
